In patent US20250009835A1, “PHARMACEUTICAL COMPOSITION AND HEALTH FUNCTIONAL FOOD FOR PREVENTION OR TREATMENT OF CANCER COMPRISING MIXED HERBAL EXTRACT” (H&O BIOSIS CO., LTD., priority 2021, published 2025):

Experiments:
[1] = test system: Huh7 and Hep3B cell lines; test: Cell viability in hepatocellular carcinoma cell lines without drug resistance; format: cell-based; details: 0, 1, and 3 µM range, FIG. 4A
Experimental: (§1) For cell viability measurements on cancer cell lines, three hepatocellular carcinoma cell lines (Huh-7, Hep3B, and SNU475) were seeded in a 384-well plate at a density of 2,000 cells/40 μl/well. After incubation for 16 hours, the extract of the present invention was treated at a concentration of 10 μl/well, followed by incubation at 37° C. for 48 hours. After 48 hours, 40 μl/well of the medium was removed and 4% paraformaldehyde was added to be a 30 μl/well, followed by incubation at room temperature for 10 minutes. Thereafter, after washing with DPBS, nuclear staining was performed with Hoechst33342 at a concentration of […] at room temperature for 10 minutes. After washing twice with DPBS, images were acquired with Operetta. The cell viability was identified by counting the number of cells using Operetta software.

SNU475 cell line [2] = test: Cell viability in anticancer drug-resistant cancer cells; format: cell-based; details: 0, 1, and 3 µM range, FIG. 4A
Experimental: as §1

SNU475 cell line [3] = details: known property of the SNU475 cell line; cited from earlier work

| Compound | anticancer effect of sorafenib in Huh7 and Hep3B [1] | anticancer effect of sorafenib in SNU475 (SNU475 cell line [2]) | resistance of SNU475 to regorafenib (SNU475 cell line [3]) |
| --- | --- | --- | --- |
| CNC(=O)c1cc(Oc2ccc(NC(=O)Nc3ccc(Cl)c(C(F)(F)F)c3)cc2)ccn1 [sorafenib] | anticancer effect was exhibited | exhibited resistance |  |
| CNC(=O)c1cc(Oc2ccc(NC(=O)Nc3ccc(Cl)c(C(F)(F)F)c3)c(F)c2)ccn1 [regorafenib] |  |  | strong resistance |
